# Source: a melting point compilation (Tetko et al.; mined from patent text by program, amines drawn as free bases though some values may be those of a salt)
row,melting point [°C],Structure (SMILES)
1,259 to 260,CN1C(=O)CCC2=C1Cc1cc(C(=O)c3ccc(Cl)c(S(N)(=O)=O)c3)ccc12
2,143,CC(C)(C)C1CSC2(CCC(C=C(Br)Br)CC2)SC1 (centres undefined)
3,248 to 250,Cc1snc(O)c1C(N)=O
4,48 to 50,COC(=O)[C@@H]1CSCN1S(=O)(=O)c1ccc(Cl)c(CBr)c1Cl
5,119 to 120,C=CCc1cc2c(c(CC=C)c1OC1CCCCO1)CCC(=O)N2 (centres undefined)
6,240,NS(=O)(=O)c1ccc(-c2cccc(-c3nc(-c4ccc(C(F)(F)F)cc4)cc(C(F)F)n3)c2)s1
7,98.3 to 100,CC(C)(C)OC(=O)N[C@@H](Cc1ccc(-c2ccccc2)cc1)C(=O)OCc1ccccc1
8,206 to 209,Oc1ccc(N2CCN(Cc3nc4ccccc4[nH]3)CC2)cc1
9,85 to 88,Cc1ccc(S(=O)(=O)OCC2Cc3cccc(C=CC(C)(C)C)c3O2)cc1 (centres undefined)
10,255 to 257,O=C(Nc1ccc(-c2ncc(-c3cccc(NC(=O)c4ccccn4)c3)[nH]2)cc1)c1ccccn1
11,362 to 366,NC(=O)c1nc(-c2cccc(O)c2)nc2c1[nH]c(=O)n2Cc1ccccc1
12,116 to 118,CC(=O)OCC1(C)SC2C(NC(=O)Cc3ccccc3)C(=O)N2C1C(=O)OCC(Cl)(Cl)Cl (centres undefined)
13,170 to 172,Cc1nc(-n2ccccc2=O)sc1C(=O)NCc1ccc(F)cc1
14,89 to 90,C[C@H]1[C@H]2O[C@H]2C(S(=O)(=O)c2ccccc2)=C[C@H](C)[C@H]1O[Si](C)(C)C(C)(C)C
15,193 to 196,COC(=O)c1ccc(CN2C(=O)CCc3c(CC4SC(=O)NC4=O)ccc(OC)c32)cc1 (centres undefined)
16,128 to 133,CN(C)C=C(C(=O)c1ccccc1)c1ccccc1
17,69,O=C1CC2(CCCC2)CC(=O)N1CCCCOc1cccc2c1SCCC2
18,193,CCCC(=CC(N)C(=O)O)CP(=O)(O)O (centres undefined)
19,182 to 184,N#Cc1c[nH]cc1-c1ccc(Cl)cc1C(=O)c1ccccc1Cl
20,249,CCOC(=O)c1ccc(-c2[nH]nc3c2C(=O)c2c(NC(=O)NN4CCN(C)CC4)cccc2-3)s1
21,157 to 158,O=C(O)c1cc(OCc2ccccc2)cc([N+](=O)[O-])c1
22,157 to 159,CC(=O)Oc1ccc2c(=O)c(C=O)coc2c1
23,45 to 48,CC(=O)c1cc(OCC2CO2)ccc1OCc1ccccc1 (centres undefined)

row,melting point [°C],Structure (SMILES)
1,161 to 163,Nc1ccn(C2CC(O)C(CO)O2)c(=O)c1F (centres undefined)
2,192 to 194,CC1=CC(c2ccccc2Cl)C(c2nnco2)=C(C)N1 (centres undefined)
3,73 to 75,CC(C)N(C(=S)ON1C(=O)c2ccccc2C1=O)C(C)C
4,159 to 161,CCOC(=O)C1=C(C)NC(C)=C(C(=O)OCC)C1c1ccccc1O
5,> 300,O=C(Nc1nnn[nH]1)c1cnc2sc3ccc(Cl)cc3n2c1=O
6,188 to 192,CCOC(=O)c1cn(-c2csnn2)c2nc(Cl)c(F)cc2c1=O
7,58 to 61,CCc1ncnc(NC(CC)c2ccc(Oc3c(F)c(F)c(C(F)(F)F)c(F)c3F)cc2)c1Cl (centres undefined)
8,157 to 159,COc1cc2cc(CO)nc(-c3ccnc(NN)c3)c2cc1OC
9,100 to 102,CCCCSc1ccc(C(=O)O)nc1
10,236 to 238,Cc1nc2c(N)nc3cc(OCCC4CCN(C(=O)C5CCCC5)CC4)ccc3c2n1CC(C)C
11,154 to 155,COC(=O)Cc1ccc(C(=C2CC(C)(C)CC(C)(C)C2)c2ccc(O)cc2)cc1
12,88 to 90,COc1ccc(C(=O)c2cccc(Br)c2F)cc1
13,160 to 170,COc1ccc2[nH]cc(CC3=CCCN(CCCC(O)c4ccc(F)cc4)C3)c2c1 (centres undefined)
14,100 to 104,CCCCCCCCCCCCCCCC(=O)OC(CCCCCCCCCCCCCCC)CC(=O)NCCC(=O)NC(CCC(=O)O)C(=O)O (centres undefined)
15,244 to 246,O=C1NC(=S)S/C1=C\c1ccc(COc2ccc(C(=O)c3ccccc3)cc2)cc1
16,102 to 104,Cc1cc(C)c(C(=O)c2c(C)cccc2C)c(OCC(O)CNC(C)C)c1 (centres undefined)
17,161 to 163,CC1(C)CCC(C)(C)c2cc3c(cc21)C(=O)C=CC3=O
18,> 300,CCn1c(=O)c2[nH]c(/C=C/c3ccc(N(C)C)cc3)nc2n(CC)c1=O
19,175 to 178,Cc1ccc(S(=O)(=O)N2CCN(S(=O)(=O)c3ccc(C)cc3)CC3CCC(CN(S(=O)(=O)c4ccc(C)cc4)CC2)O3)cc1
20,134 to 136,CCCCCCCCCCCCCCCCCCOc1cc(OCC(=O)O)cc(C(=O)N(CC(=O)O)CC(=O)O)c1
21,158 to 160,N#Cc1ccc(COc2ccc3c(c2)CCNC3=O)cc1
22,108 to 110,COc1cn(C(C)C)c(=O)o1
23,54 to 56,CN(C(=O)c1ccccc1)[Si](C)(C)N(C)C(=O)c1ccccc1

row,melting point [°C],Structure (SMILES)
1,73.5 to 74,CSC(C(=O)O)c1ccsc1 (centres undefined)
2,157 to 158,COc1ccc(/C=C/c2c(Cl)cncc2Cl)c2cc(-c3ccccn3)oc12
3,108 to 109,CC1(C)COC(=O)OC1
4,182 to 183,CCN(CC)c1ccc(C2(c3c(C)n(CCOc4ccccc4)c4ccccc34)OC(=O)c3ccccc32)c(C)c1 (centres undefined)
5,107 to 108,CN(C)C(=O)n1oc(CCl)c(Cl)c1=O
6,151 to 152,N=C(c1ccc(Cl)cc1)c1cc2ccccc2cn1
7,268,CCc1ccccc1NC=C1C(=O)N(c2ccc(N(S(C)(=O)=O)S(C)(=O)=O)cc2)N=C1C
8,134 to 136,CCN1C(=O)Cc2cc(C(=O)c3ccccc3)ccc21
9,268 to 273,COc1ccc(N2C(=O)N(c3cccc(C(N)=O)c3)c3nc(Nc4ccccc4)ncc3C2C)cc1 (centres undefined)
10,236 to 239,COc1ccc(/C=C/C(=O)Nc2cc(OC)c(OC)cc2C(=O)O)cc1OC
11,238 to 240,CN(c1ccc(O)cc1)c1nc2cc(Cl)ccc2s1
12,122 to 124,O=S(=O)(Nc1cc(F)c(Cl)cc1I)c1ccccc1
13,95 to 98,C=CC(=O)OCCNC(=O)C(C)ON(C(C(C)(C)C)P(=O)(OCC)OCC)C(C)(C)C (centres undefined)
14,126 to 128,CCOC(=S)SC(=CC(=O)c1cc(Cl)c(C)c(Cl)c1)C(=O)O
15,197,Cc1ccc(SC2OC(COC(=O)c3ccccc3)C(O)C(OC(=O)c3ccccc3)C2OC(=O)c2ccccc2)cc1 (centres undefined)
16,280 to 282,COc1ccc(Nc2cc(-c3ccncc3)nc3ccccc23)cc1Cl
17,158,Cc1ccc(-c2c(Cl)nc3ncnn3c2NC2CCCC2)cc1
18,27 to 28,CN(C)CCCCCCOc1ccc(C(=O)CCc2ccccc2)cc1
19,92 to 93,COc1ccc(C(=O)C=Cc2ccccc2F)cc1
20,121 to 124,CC=C1c2ccccc2CC(NO)c2ccccc21 (centres undefined)
21,229 to 231,CC(=O)Nc1ccc(S(=O)(=O)Cc2cccc(OC(C)=O)c2)c2ccc(C#N)nc12
22,135 to 137,Cc1cc(=O)n(C2CCCCC2)c(=O)n1C
23,142 to 144,C=Cc1cc(C)cc(C)c1CC(=O)NC1(C(=O)OC)CCN(OC)CC1

row,melting point [°C],Structure (SMILES)
1,190 to 191,COCC1CN(c2ccc3cc(O)ccc3c2)C(=O)O1 (centres undefined)
2,127 to 130,CCOP(=O)(OCC)C(c1ccccc1)c1ccccc1C(F)(F)F (centres undefined)
3,153 to 162,CN(C(=O)C1CCCN(c2ccc([N+](=O)[O-])c(C=C3NC(=O)NC3=O)c2)C1)C1CCCCC1 (centres undefined)
4,209 to 211,CC(C)=C1C(=O)N(c2ccc(N)cc2)C(=O)/C1=C(\C)c1cc(C)oc1C
5,119 to 120,O=C(Nc1ccc(Oc2ccnc(NC3CCCC3)n2)c2ccccc12)c1cc(F)cc(N2CCOCC2)c1
6,46,CC1(C)Oc2c(Cl)cc(Cl)cc2[C@@H](Br)[C@@H]1O (relative stereo)
7,287 to 288,Cn1nc(-c2ccc3c(c2)CCN(C2CCC2)CC3)ccc1=O
8,141 to 143,NC=C1C(=O)N(c2cccc(Cl)c2)c2ccccc21
9,134 to 135,Cn1ccc(S(=O)(=O)NC(C)(C)C)c1
10,120 to 121,COC1CCN(c2nnc(-c3ccc(C)cc3)c(-c3ccc(C)cc3)n2)CC1
11,128 to 130,Cc1ccc(N(c2ccc(-c3ccccc3)cc2)c2ccc(C)c(C)c2)cc1
12,103 to 104,CC(=O)c1sc(N2CCN(CC3CC3)C2=O)nc1C
13,198 to 202,CCC(C(=O)O)c1ccc(C(CC)C(=O)O)cc1 (centres undefined)
14,142 to 144,COc1ccc(N2CCN(c3c(C)c(C)c4c(c3C)C(O)(c3ccc(F)cc3)C(C)(C)O4)CC2)cc1 (centres undefined)
15,104 to 105,NC(=O)CN(C(=O)CCCOc1ccc([N+](=O)[O-])c(C=O)c1)C1CCCCC1
16,72 to 82,COC(=O)C(C)NC(=O)NCCCCC1CCSS1 (centres undefined)
17,220 to 221,N#Cc1cc(C(F)(F)F)[nH]c1-c1sc(Cl)c(Cl)c1Cl
18,205 to 209,CCCCn1c(=O)c2nc(C(=O)OCC)cn2c2ccccc21
19,229 to 231,O=C(Nc1ccc(Br)cc1)Nc1cc(C(F)(F)F)ccc1Oc1ccccc1C(=O)O
20,> 300,Oc1cccc2c1CC(N1CCN(c3ncccn3)CC1)CC2 (centres undefined)
21,167 to 168,CC(=O)NC[C@H]1CN(c2ccc(N3C[C@H]4CN(C(=O)CO)C[C@H]4C3)c(F)c2)C(=O)O1
22,95 to 97,CC1(C)COC(c2ccccc2-c2ccc(-c3ccccc3)cc2)=N1

row,Structure (SMILES),melting point [°C]
1,COc1ccc2c3c1OC1C(=O)CCC4(OC)C(C2)N(C)CCC314 (centres undefined),140 to 142
2,CCC(C)OC(=O)C(Br)=CC1C(C(=O)OC(C#N)c2cccc(Oc3ccccc3)c2)C1(C)C (centres undefined),76
3,Clc1ccccc1CN1CC=C(c2cc3ccccc3s2)CC1,105 to 106
4,O=Cc1c(Cl)n(CC2CC2)c2ccccc12,108 to 109
5,COC(=O)c1cc(CC(C)NCC(O)c2ccc(O)c(CO)c2)ccc1O (centres undefined),65 to 69
6,CC(C)C1(C)CCNC1=O (centres undefined),88 to 90
7,CC(C)(C)c1cc2c(c(C(C)(C)C)c1)OP(OC1CC(C)(C)N(OC3CCCCC3)C(C)(C)C1)Oc1c(cc(C(C)(C)C)cc1C(C)(C)C)C2,140 to 144
8,C[C@@H]1CNC[C@H]2Cc3c(ncc(F)c3C=NO)N21,195 to 197
